Source: ChEMBL document CHEMBL3045137, “Synthesis and evaluation of the hypoglycemic and hypolipidemic activity of novel 5-benzylidene-2,4-thiazolidinedione analogs in a type-2 diabetes model” (2011)

Legend:
Assay type in all cases: functional
Set-up in all cases: scale not given: the % may be the effect or the level left
Rattus norvegicus [1] = experiment: Hypolipidemic activity in high fat diet fed Rattus norvegicus Sprague-Dawley (rat) type-2 diabetes model assessed as reduction in streptozotocin-induced cholesterol level at 20 mg/kg/day, po for 14 days measured after treatment
Rattus norvegicus [2] = experiment: Hypolipidemic activity in high fat diet fed Rattus norvegicus Sprague-Dawley (rat) type-2 diabetes model assessed as reduction in streptozotocin-induced triglyceride level at 20 mg/kg/day, po for 14 days measured after treatment
Rattus norvegicus [3] = experiment: Hypoglycemic activity in high fat diet fed Rattus norvegicus Sprague-Dawley (rat) type-2 diabetes model assessed as reduction in streptozotocin-induced blood glucose level at 20 mg/kg/day, po for 14 days measured after treatment
Rattus norvegicus [4] = experiment: Hypolipidemic activity in high fat diet fed Rattus norvegicus Sprague-Dawley (rat) type-2 diabetes model assessed as reduction in streptozotocin-induced cholesterol level at 10 mg/kg/day, po for 14 days measured after treatment
Rattus norvegicus [5] = experiment: Hypolipidemic activity in high fat diet fed Rattus norvegicus Sprague-Dawley (rat) type-2 diabetes model assessed as reduction in streptozotocin-induced triglyceride level at 10 mg/kg/day, po for 14 days measured after treatment
Rattus norvegicus [6] = experiment: Hypoglycemic activity in high fat diet fed Rattus norvegicus Sprague-Dawley (rat) type-2 diabetes model assessed as reduction in streptozotocin-induced blood glucose level at 10 mg/kg/day, po for 14 days measured after treatment

| SMILES | Activity (Rattus norvegicus [1]) | Activity (Rattus norvegicus [2]) | Activity (Rattus norvegicus [3]) | Activity (Rattus norvegicus [4]) | Activity (Rattus norvegicus [5]) | Activity (Rattus norvegicus [6]) |
| --- | --- | --- | --- | --- | --- | --- |
| O=C(COc1ccc(/C=C2\SC(=O)NC2=O)cc1)Nc1ncc([N+](=O)[O-])s1 | 92.46% | 78.11% | 56.08% |  |  |  |
| NC(=O)c1cc(C(=O)COc2ccc(/C=C3\SC(=O)NC3=O)cc2)ccc1O | 89.7% | 74.18% | 64.43% |  |  |  |
| CCc1ccc(CCOc2ccc(CC3SC(=O)NC3=O)cc2)nc1.Cl (centres undefined) [PIOGLITAZONE HYDROCHLORIDE] |  |  |  | 86.83% | 78.38% | 51.57% |
